Data on 24 molecules can be found in ChEMBL document CHEMBL1142695, “Discovery of functionally selective 7,8,9,10-tetrahydro-7,10-ethano-1,2,4-triazolo[3,4-a]phthalazines as GABA A receptor agonists at the alpha3 subunit” (J Med Chem, 2005).

pKi: −log10 of the molar value.

What all share (type): cell-based
Assay [1] concerns the target T1, GABA-A receptor; alpha-2/beta-3/gamma-2 (Homo sapiens, UniProt P18507+P28472+P47869).
T1 sequence (P18507 whole entry): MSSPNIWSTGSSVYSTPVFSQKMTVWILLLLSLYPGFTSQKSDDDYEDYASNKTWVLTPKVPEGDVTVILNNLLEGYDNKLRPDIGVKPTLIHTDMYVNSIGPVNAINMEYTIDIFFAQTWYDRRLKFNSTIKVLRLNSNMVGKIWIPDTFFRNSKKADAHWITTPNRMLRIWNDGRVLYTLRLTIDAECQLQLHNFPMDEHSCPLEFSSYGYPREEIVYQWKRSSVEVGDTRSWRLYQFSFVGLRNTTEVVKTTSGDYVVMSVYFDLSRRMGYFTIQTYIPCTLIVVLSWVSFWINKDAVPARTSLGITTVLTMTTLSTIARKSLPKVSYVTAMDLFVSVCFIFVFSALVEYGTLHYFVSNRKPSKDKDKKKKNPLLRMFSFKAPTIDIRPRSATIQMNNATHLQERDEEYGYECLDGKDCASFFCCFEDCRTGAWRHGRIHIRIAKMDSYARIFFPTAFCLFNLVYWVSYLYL
T1 sequence (P28472 whole entry): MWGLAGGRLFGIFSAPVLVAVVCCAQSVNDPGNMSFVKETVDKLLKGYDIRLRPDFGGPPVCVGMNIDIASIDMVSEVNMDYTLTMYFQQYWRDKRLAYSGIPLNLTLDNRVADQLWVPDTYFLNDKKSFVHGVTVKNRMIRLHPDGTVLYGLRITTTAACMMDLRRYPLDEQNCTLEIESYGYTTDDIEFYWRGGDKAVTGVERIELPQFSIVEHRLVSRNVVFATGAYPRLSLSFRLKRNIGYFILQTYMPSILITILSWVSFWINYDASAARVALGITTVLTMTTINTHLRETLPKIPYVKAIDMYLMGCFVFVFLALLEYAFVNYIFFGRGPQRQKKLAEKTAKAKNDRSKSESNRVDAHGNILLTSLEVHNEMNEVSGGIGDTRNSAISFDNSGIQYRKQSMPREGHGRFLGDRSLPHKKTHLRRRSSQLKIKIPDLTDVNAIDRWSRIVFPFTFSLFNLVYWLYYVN
T1 sequence (P47869 whole entry): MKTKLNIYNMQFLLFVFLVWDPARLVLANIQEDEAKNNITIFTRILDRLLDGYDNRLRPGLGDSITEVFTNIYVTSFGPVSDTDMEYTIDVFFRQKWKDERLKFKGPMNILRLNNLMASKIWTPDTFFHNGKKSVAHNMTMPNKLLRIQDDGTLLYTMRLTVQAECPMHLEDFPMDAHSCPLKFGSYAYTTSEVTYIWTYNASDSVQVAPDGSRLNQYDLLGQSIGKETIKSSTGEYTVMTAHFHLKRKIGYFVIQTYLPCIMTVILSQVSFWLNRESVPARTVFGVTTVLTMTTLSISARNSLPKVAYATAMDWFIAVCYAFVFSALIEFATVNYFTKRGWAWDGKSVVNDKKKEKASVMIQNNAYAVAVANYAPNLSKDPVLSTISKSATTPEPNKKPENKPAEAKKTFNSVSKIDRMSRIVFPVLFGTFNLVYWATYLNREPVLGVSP
The experiment in a line: Inhibition of [3H]Ro-151788 binding to recombinant human gamma-aminobutyric acid A receptor alpha-2-beta-3-gamma-2 subtype expressed in L (tk-) cells.

The target of assay [2] is T2, GABA-A receptor; alpha-1/beta-3/gamma-2 (Homo sapiens, UniProt P14867+P18507+P28472).
T2 sequence (P14867 whole entry): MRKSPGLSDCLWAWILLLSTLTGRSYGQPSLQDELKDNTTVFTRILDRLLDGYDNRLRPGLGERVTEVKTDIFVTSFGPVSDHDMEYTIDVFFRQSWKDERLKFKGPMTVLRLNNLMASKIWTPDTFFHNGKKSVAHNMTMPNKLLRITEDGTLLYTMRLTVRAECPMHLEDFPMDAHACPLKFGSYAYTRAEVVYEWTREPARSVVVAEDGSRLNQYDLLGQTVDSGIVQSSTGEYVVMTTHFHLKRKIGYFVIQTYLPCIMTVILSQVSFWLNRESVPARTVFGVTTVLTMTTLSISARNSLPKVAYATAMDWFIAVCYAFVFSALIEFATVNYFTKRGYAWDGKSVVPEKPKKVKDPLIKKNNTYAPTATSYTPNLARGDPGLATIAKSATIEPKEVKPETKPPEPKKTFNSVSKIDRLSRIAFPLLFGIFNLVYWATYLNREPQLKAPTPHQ
T2 sequence (P18507 whole entry): T1 sequence (P18507 whole entry)
T2 sequence (P28472 whole entry): T1 sequence (P28472 whole entry)
Briefly: Inhibition of [3H]Ro-151788 binding to recombinant human gamma-aminobutyric-acid A receptor alpha-1-beta-3-gamma-2 subtype expressed in L (tk-) cells.

Assay [3] addresses T3, GABA-A receptor; alpha-3/beta-3/gamma-2 (Homo sapiens, UniProt P18507+P28472+P34903).
T3 sequence (P18507 whole entry): T1 sequence (P18507 whole entry)
T3 sequence (P28472 whole entry): T1 sequence (P28472 whole entry)
T3 sequence (P34903 whole entry): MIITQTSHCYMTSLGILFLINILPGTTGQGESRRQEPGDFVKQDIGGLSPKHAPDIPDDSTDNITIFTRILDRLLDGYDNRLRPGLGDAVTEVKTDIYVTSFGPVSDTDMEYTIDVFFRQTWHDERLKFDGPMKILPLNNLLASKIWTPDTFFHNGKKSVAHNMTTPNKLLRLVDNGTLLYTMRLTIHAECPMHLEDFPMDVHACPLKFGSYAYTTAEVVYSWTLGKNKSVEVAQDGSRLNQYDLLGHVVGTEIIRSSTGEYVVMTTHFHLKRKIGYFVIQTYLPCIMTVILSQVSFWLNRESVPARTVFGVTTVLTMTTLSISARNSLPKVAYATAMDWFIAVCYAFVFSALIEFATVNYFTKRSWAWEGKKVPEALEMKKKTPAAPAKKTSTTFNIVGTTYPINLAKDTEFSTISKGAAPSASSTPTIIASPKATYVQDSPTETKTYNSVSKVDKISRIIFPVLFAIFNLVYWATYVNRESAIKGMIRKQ
Briefly: Inhibition of [3H]Ro-151788 binding to recombinant human gamma-aminobutyric-acid A receptor alpha-3-beta-3-gamma-2 subtype expressed in L (tk-) cells.

Assay [4] concerns the target T4, GABA-A receptor; alpha-5/beta-3/gamma-2 (Homo sapiens, UniProt P18507+P28472+P31644).
T4 sequence (P18507 whole entry): T1 sequence (P18507 whole entry)
T4 sequence (P28472 whole entry): T1 sequence (P28472 whole entry)
T4 sequence (P31644 whole entry): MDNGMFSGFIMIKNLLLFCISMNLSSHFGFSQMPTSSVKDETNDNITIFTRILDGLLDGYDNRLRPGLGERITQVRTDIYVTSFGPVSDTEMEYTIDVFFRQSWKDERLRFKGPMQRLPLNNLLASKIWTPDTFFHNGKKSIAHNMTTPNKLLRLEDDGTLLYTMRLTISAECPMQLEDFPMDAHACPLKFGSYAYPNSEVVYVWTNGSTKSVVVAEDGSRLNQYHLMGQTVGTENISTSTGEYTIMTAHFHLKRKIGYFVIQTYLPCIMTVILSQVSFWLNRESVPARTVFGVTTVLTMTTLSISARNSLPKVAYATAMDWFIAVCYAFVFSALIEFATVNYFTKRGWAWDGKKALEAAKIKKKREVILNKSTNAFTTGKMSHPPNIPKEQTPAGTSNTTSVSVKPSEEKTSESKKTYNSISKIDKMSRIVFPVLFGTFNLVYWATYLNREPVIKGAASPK
Briefly: Inhibition of [3H]Ro-151788 binding to recombinant human gamma-aminobutyric-acid A receptor alpha-5-beta-3-gamma-2 subtype expressed in L (tk-) cells.

Consider `c1ccc(COc2nn3c(-c4ccsc4)nnc3c3c2C2CCC3CC2)nc1`, for which the negative logarithm of the Ki (pKi) (as a rule, the Ki on a negative log10 scale, so that one unit is a factor of ten) in assay [1] is 7.28; in assay [2] it was 6.89; in assay [3], 7.42; in assay [4], 8.36.

As to `c1ccc(COc2nn3c(-c4ccccc4)nnc3c3c2C2CCC3CC2)cc1`, the pKi was below 6.00 in assay [1], below 6.00 in assay [2], below 6.00 in assay [3] and 6.96 in assay [4].

Regarding `c1ccc(COc2nn3c(N4CCOCC4)nnc3c3c2C2CCC3CC2)nc1`, the negative logarithm of the Ki (pKi) in assay [1], in assay [2], in assay [3] and in assay [4] was below 6.00 in each case.

With `c1ccc(-c2nnc3c4c(c(Oc5cccnc5)nn23)C2CCC4CC2)cc1`, the pKi in assay [1], in assay [2], in assay [3] and in assay [4] was below 6.30 in each case.

Consider `Cn1nnnc1COc1nn2c(-c3ccccc3)nnc2c2c1C1CCC2CC1`, for which the pKi in assay [1] was 7.23; in assay [2], 7.11; in assay [3], 7.68; in assay [4], 8.36.

As to `OCCCOc1nn2c(-c3ccccc3)nnc2c2c1C1CCC2CC1`, the negative-log Ki (pKi) is 6.51 in assay [1], 6.19 in assay [2], 6.77 in assay [3] and 7.38 in assay [4].

Regarding `Oc1cccnc1COc1nn2c(-c3ccccc3)nnc2c2c1C1CCC2CC1`, the pKi in assay [1] is 6.33; in assay [2] it was 6.57; in assay [3] it was 6.74; in assay [4], 7.47.

For the molecule `Cc1nc(COc2nn3c(-c4ccccc4)nnc3c3c2C2CCC3CC2)no1`, the negative-log Ki (pKi) in assay [1] was 6.96; in assay [2] it was 6.85; in assay [3], 7.18; in assay [4] it was 7.80.

As to `OCC1CCC(COc2nn3c(-c4ccccc4)nnc3c3c2C2CCC3CC2)CC1` (trans isomer), the pKi in assay [1] is 7.11; in assay [2], 6.82; in assay [3], 7.24; in assay [4], 7.39.

As for `c1ccc(-c2nnc3c4c(c(CNc5ccccn5)nn23)C2CCC4CC2)cc1`, the pKi in assay [1], in assay [2], in assay [3] and in assay [4] was below 6.00 throughout.

With `c1ccc(-c2nnc3c4c(c(OCc5ccc6c(c5)OCO6)nn23)C2CCC4CC2)cc1`, the pKi in assay [1], in assay [2], in assay [3] and in assay [4] was below 6.30 each time.

Take `Cc1nnc2ccc(-c3cccc(C(F)(F)F)c3)nn12` [CI-218872]: the negative-log Ki (pKi) in assay [1] was 6.14; in assay [2] it was 7.18; in assay [3] it was 6.07; in assay [4], 6.34.

With `c1ccc(-c2nnc3c4c(c(COc5ccccn5)nn23)C2CCC4CC2)cc1`, the negative logarithm of the Ki (pKi) was 6.64 in assay [1], 6.36 in assay [2], 6.92 in assay [3] and 7.24 in assay [4].

Take `c1ccc(-c2nnc3c4c(c(OCc5nnc[nH]5)nn23)C2CCC4CC2)cc1`: the pKi in assay [1] is 7.60; in assay [2] it was 7.37; in assay [3], 7.72; in assay [4] it was 8.55.

Take `c1ccc(-c2nnc3c4c(c(OCCc5ccccn5)nn23)C2CCC4CC2)cc1`: the negative-log Ki (pKi) was 6.57 in assay [1], 6.32 in assay [2], 6.70 in assay [3] and 7.36 in assay [4].

`c1ccc(COc2nn3c(-c4ccncc4)nnc3c3c2C2CCC3CC2)nc1`: the pKi in assay [1] was 6.49; in assay [2], below 6.00; in assay [3], 6.82; in assay [4], 7.70.

Regarding `O=C1CCC(COc2nn3c(-c4ccccc4)nnc3c3c2C2CCC3CC2)N1` (stereo unspecified), the negative-log Ki (pKi) in assay [1] was 6.32; in assay [2] it was 6.14; in assay [3] it was 6.59; in assay [4], 7.23.

In the case of `Cc1csc(COc2nn3c(-c4ccccc4)nnc3c3c2C2CCC3CC2)n1`, the pKi in assay [1] was 7.40; in assay [2] it was 6.85; in assay [3] it was 7.52; in assay [4], 8.54.

With `c1ccc(-c2nnc3c4c(c(OCc5cnc6ccccc6n5)nn23)C2CCC4CC2)cc1`, the pKi in assay [1] was 7.47; in assay [2], 7.09; in assay [3], 7.59; in assay [4], 8.41.

As for `Cc1scnc1COc1nn2c(-c3ccccc3)nnc2c2c1C1CCC2CC1`, the negative-log Ki (pKi) in assay [1] was 7.68; in assay [2] it was 7.46; in assay [3], 7.92; in assay [4] it was 9.11.

For `COc1ccccc1-c1nnc2c3c(c(OCc4ccccn4)nn12)C1CCC3CC1`, the pKi was below 6.00 in assay [1], below 6.00 in assay [2], below 6.00 in assay [3] and 6.77 in assay [4].

For `CN1CCCCC1COc1nn2c(-c3ccccc3)nnc2c2c1C1CCC2CC1` (stereo unspecified), the negative logarithm of the Ki (pKi) in assay [1], in assay [2], in assay [3] and in assay [4] was below 6.00 each time.

Take `FC(F)(F)Oc1ccc(COc2nn3c(-c4ccccc4)nnc3c3c2C2CCC3CC2)cc1`: the negative logarithm of the Ki (pKi) in assay [1], in assay [2], in assay [3] and in assay [4] was below 6.30 in each case.

As to `CCO[n+]1ccccc1Oc1nn2c(-c3ccccc3)nnc2c2c1C1CCC2CC1`, the pKi in assay [1] is 6.41; in assay [2], below 6.00; in assay [3], 6.26; in assay [4], 7.19.
